Test results from US11807693B2 (priority 2014, dated 2023).
Where two headings read alike, the source gives them in different places. Starred links: 1 amine or outer side, 2 acyl side, 3 side chain; linkers in the order of their positions; H or OH if unused. Non-standard residues stand in square brackets, D forms with d. Residues, ends and D or L forms follow the SMILES beside them. ξ: configuration not given here. *: point of attachment. dBip = N[C@H](Cc1ccc(-c2ccccc2)cc1)C(=O)O; Oic = O=C(O)[C@@H]1C[C@@H]2CCCC[C@@H]2N1; Phe(4-Cl) = N[C@@H](Cc1ccc(Cl)cc1)C(=O)O; Phe(4-I) = N[C@@H](Cc1ccc(I)cc1)C(=O)O; γGlu = O=C(O)[C@H](CCC(=O)[*:2])N[*:1]; d(β3hF) = N[C@@H](CC(=O)O)Cc1ccccc1; NMeR = CN[C@@H](CCCNC(=N)N)C(=O)O; Palmitoyl = CCCCCCCCCCCCCCCC(=O)*; Tridecanoyl = CCCCCCCCCCCCC(=O)*; hArg = N=C(N)NCCCC[C@H](N)C(=O)O; Cha = N[C@@H](CC1CCCCC1)C(=O)O; NMeL = CN[C@@H](CC(C)C)C(=O)O; αMeL = CC(C)C[C@](C)(N)C(=O)O; αMeP = C[C@@]1(C(=O)O)CCCN1; ξαMeL = CC(C)CC(C)(N)C(=O)O; Nle = CCCC[C@H](N)C(=O)O; ξαMeP = CC1(C(=O)O)CCCN1; ξβ3hV = CC(C)C(N)CC(=O)O; AEEA = NCCOCCOCC(=O)O; Aib = CC(C)(N)C(=O)O

Key:
human APJ receptor = biological target: T1, human APJ receptor (Homo sapiens, UniProt P35414); assay: [35S] GTPγS assay, human APJ receptor; format: biochemical
T1 construct: expressed in transfected cells
T1 sequence (P35414 1-380): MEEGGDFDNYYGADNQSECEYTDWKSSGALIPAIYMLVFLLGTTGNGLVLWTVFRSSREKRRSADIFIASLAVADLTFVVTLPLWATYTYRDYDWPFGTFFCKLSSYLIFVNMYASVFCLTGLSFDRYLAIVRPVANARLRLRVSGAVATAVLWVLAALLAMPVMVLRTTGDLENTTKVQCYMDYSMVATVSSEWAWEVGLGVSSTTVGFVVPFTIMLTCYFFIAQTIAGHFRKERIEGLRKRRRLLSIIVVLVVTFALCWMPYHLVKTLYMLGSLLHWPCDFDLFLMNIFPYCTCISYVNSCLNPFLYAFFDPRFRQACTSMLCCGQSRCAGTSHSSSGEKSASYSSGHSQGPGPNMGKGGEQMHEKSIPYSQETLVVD

rat APJ receptor = biological target: T2, rat APJ receptor (Rattus norvegicus, UniProt Q9JHG3); assay: [35S] GTPγS assay, rat APJ receptor; format: biochemical
T2 construct: expressed in transfected cells
T2 sequence (Q9JHG3 1-377): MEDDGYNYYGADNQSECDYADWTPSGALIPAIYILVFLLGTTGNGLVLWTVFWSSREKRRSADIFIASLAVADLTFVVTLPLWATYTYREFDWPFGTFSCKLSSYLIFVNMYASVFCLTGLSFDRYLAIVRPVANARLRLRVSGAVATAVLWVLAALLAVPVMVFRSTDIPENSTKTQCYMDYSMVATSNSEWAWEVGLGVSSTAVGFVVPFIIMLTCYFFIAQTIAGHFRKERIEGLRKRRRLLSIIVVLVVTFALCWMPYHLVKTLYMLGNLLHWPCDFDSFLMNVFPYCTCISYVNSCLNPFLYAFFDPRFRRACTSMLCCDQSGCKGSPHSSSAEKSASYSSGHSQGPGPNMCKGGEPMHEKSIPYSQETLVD
Description: The membranes were incubated with modified peptides in the assay buffer. […] Bound [^35S] GTPγS was separated from free radiolabel by filtration. The filter bound radioactivity was determined by liquid scintillation counting.

[1] = In vitro stability in rat plasma; format: in vitro ADME
How it was run: (§1)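 Incubations: 5 μM apelin peptide, 37° C., 4 hr, in rat plasma, liver or kidney homogenate. Read-out via high resolution LC-MS after MeOH/internal standard precipitation and centrifugation.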

[2] = In vitro stability in rat liver homogenate; format: in vitro ADME; details: tissue homogenate
How it was run: as §1

[3] = In vitro stability in rat kidney homogenate; format: in vitro ADME; details: rat, tissue homogenate
How it was run: as §1

[4] = rat APJ receptor, read-out: EC50 Rat APJ Receptor

Compound	EC50 (human APJ receptor; human APJ receptor) [nM]	EC50 (rat APJ receptor; [4]) [nM]	remaining at 4 h, 5 μM [1] [%]	remaining at 4 h, 5 μM [2] [%]	remaining at 4 h, 5 μM [3] [%]	EC50 (human APJ receptor; Table 16) [nM]	EC50 (rat APJ receptor; Table 16, read-out: EC50 Rat APJ Receptor) [nM]
CCCC[C@H](NC(=O)[C@@H]1C[C@@H]2CCCC[C@@H]2N1C(=O)CNC(=O)[C@H](CCCCN)NC(=O)[C@H](Cc1c[nH]cn1)NC(=O)[C@H](CO)NC(=O)[C@H](CC1CCCCC1)NC(=O)[C@H](CCCNC(=N)N)N(C)C(=O)[C@@H]1CCCN1C(=O)[C@H](CCCCNC(=N)N)NC(=O)[C@H](CCC(N)=O)NC(C)=O)C(=O)N1CCC[C@H]1C(=O)N[C@@H](Cc1ccc(Cl)cc1)C(=O)O [compound 61] (Ac-Q[hArg]P[NMeR][Cha]SHKG[Oic][Nle]P[Phe(4-Cl)]-OH)	0.159	0.189	27.9	< 1	7.58		
CCCCCCCCCCCCC(=O)N[C@@H](CCC(=O)NCCOCCOCC(=O)NCCOCCOCC(=O)N[C@@H](CCCC)C(=O)N[C@H](CCCNC(=N)N)C(=O)N[C@@H](CCC(N)=O)C(=O)N[C@@H](CCCCNC(=N)N)C(=O)N1CCC[C@H]1C(=O)N[C@H](CCCNC(=N)N)C(=O)N(C)[C@@H](CC(C)C)C(=O)N[C@@H](C)C(=O)N[C@@H](Cc1c[nH]cn1)C(=O)N[C@@H](CCCCN)C(=O)NCC(=O)N1[C@H](C(=O)N[C@@H](Cc2ccc(I)cc2)C(=O)N2CCC[C@H]2C(=O)N[C@H](Cc2ccc(-c3ccccc3)cc2)C(=O)O)C[C@@H]2CCCC[C@@H]21)C(=O)O [compound 320] ({Tridecanoyl-γGlu-AEEA-AEEA}-[Nle][dR]Q[hArg]P[dR][NMeL]AHKG[Oic][Phe(4-I)]P[dBip]-OH)	17.8		> 90	86.5	73.4		
CCCCCCCCCCCCC(=O)N[C@@H](CCC(=O)NCCOCCOCC(=O)NCCOCCOCC(=O)N[C@@H](CCC(N)=O)C(=O)N[C@@H](CCCNC(=N)N)C(=O)N1CCC[C@H]1C(=O)N[C@@H](CCCCNC(=N)N)C(=O)N[C@@](C)(CC(C)C)C(=O)N[C@@H](CO)C(=O)N[C@@H](Cc1c[nH]cn1)C(=O)N[C@@H](CCCCN)C(=O)NCC(=O)N1[C@H](C(=O)N[C@@H](CCCC)C(=O)N2CCC[C@H]2C(=O)N[C@@H](Cc2ccc(Cl)cc2)C(=O)O)C[C@@H]2CCCC[C@@H]21)C(=O)O [compound 360] ({Tridecanoyl-γGlu-AEEA-AEEA}-QRP[hArg][αMeL]SHKG[Oic][Nle]P[Phe(4-Cl)]-OH)			81.5	2.5	2	0.0519	
CCCCCCCCCCCCC(=O)N[C@@H](CCC(=O)NCCOCCOCC(=O)NCCOCCOCC(=O)NC(CC(=O)N[C@@H](CCCNC(=N)N)C(=O)N1CCC[C@H]1C(=O)N(C)[C@@H](CCCNC(=N)N)C(=O)NC(C)(CC(C)C)C(=O)N[C@@H](CO)C(=O)N[C@@H](Cc1c[nH]cn1)C(=O)N[C@@H](CCCCN)C(=O)NCC(=O)N1[C@H](C(=O)N[C@@H](CCCC)C(=O)N2CCC[C@H]2C(=O)N[C@@H](Cc2ccc(Cl)cc2)C(=O)O)C[C@@H]2CCCC[C@@H]21)C(C)C)C(=O)O (stereo partly drawn) [compound 374] ({Tridecanoyl-γGlu-AEEA-AEEA}-[ξβ3hV]RP[NMeR][ξαMeL]SHKG[Oic][Nle]P[Phe(4-Cl)]-OH)	0.305	0.503	66	11	89		
CCCCCCCCCCCCC(=O)N[C@@H](CCC(=O)NCCOCCOCC(=O)NCCOCCOCC(=O)N[C@H](CCC(N)=O)C(=O)N[C@@H](CCCNC(=N)N)C(=O)N1CCC[C@H]1C(=O)N(C)[C@@H](CCCNC(=N)N)C(=O)N[C@@](C)(CC(C)C)C(=O)N[C@@H](CO)C(=O)N[C@@H](Cc1c[nH]cn1)C(=O)N[C@@H](CCCCN)C(=O)NCC(=O)N1[C@H](C(=O)N[C@@H](CCCC)C(=O)N2CCC[C@H]2C(=O)N[C@@H](Cc2ccc(Cl)cc2)C(=O)O)C[C@@H]2CCCC[C@@H]21)C(=O)O [compound 386] ({Tridecanoyl-γGlu-AEEA-AEEA}-[dQ]RP[NMeR][αMeL]SHKG[Oic][Nle]P[Phe(4-Cl)]-OH)			58	6	4	0.0934	
CCCCCCCCCCCCC(=O)N[C@@H](CCC(=O)NCCOCCOCC(=O)NCCOCCOCC(=O)N[C@@H](CCC(N)=O)C(=O)N[C@@H](CCCNC(=N)N)C(=O)N1CCC[C@H]1C(=O)N(C)[C@@H](CCCNC(=N)N)C(=O)N[C@@](C)(CC(C)C)C(=O)N[C@@H](CO)C(=O)N[C@@H](Cc1c[nH]cn1)C(=O)N[C@@H](CCCCN)C(=O)NCC(=O)N1[C@H](C(=O)N[C@@H](CCCC)C(=O)N[C@@H](Cc2ccc(Cl)cc2)C(=O)O)C[C@@H]2CCCC[C@@H]21)C(=O)O [compound 389] ({Tridecanoyl-γGlu-AEEA-AEEA}-QRP[NMeR][αMeL]SHKG[Oic][Nle][Phe(4-Cl)]-OH)			< 1	< 1	4	0.196	
CCCCCCCCCCCCC(=O)N[C@@H](CCC(=O)NCCOCCOCC(=O)NCCOCCOCC(=O)N[C@@H](CCC(N)=O)C(=O)N[C@@H](CCCNC(=N)N)C(=O)N1CCC[C@H]1C(=O)N(C)[C@@H](CCCNC(=N)N)C(=O)N[C@@H](CC1CCCCC1)C(=O)N[C@@H](CO)C(=O)N[C@@H](Cc1c[nH]cn1)C(=O)N[C@@H](CCCCN)C(=O)NCC(=O)N1CCC[C@@]1(C)C(=O)N[C@@H](CCCC)C(=O)N1CCC[C@H]1C(=O)N[C@@H](Cc1ccc(Cl)cc1)C(=O)O)C(=O)O [compound 418] ({Tridecanoyl-γGlu-AEEA-AEEA}-QRP[NMeR][Cha]SHKG[αMeP][Nle]P[Phe(4-Cl)]-OH)			> 90	< 1	8	0.147	0.253
CCCCCCCCCCCCC(=O)N[C@@H](CCC(=O)NCCOCCOCC(=O)NCCOCCOCC(=O)N[C@@H](CCC(N)=O)C(=O)N[C@@H](CCCNC(=N)N)C(=O)N1CCC[C@H]1C(=O)N[C@@H](CCC(=O)O)C(=O)N[C@@H](CC(C)C)C(=O)N[C@@H](CO)C(=O)N[C@@H](Cc1c[nH]cn1)C(=O)N[C@@H](CCCCN)C(=O)NCC(=O)N1CCC[C@H]1C(=O)N[C@@H](CCCC)C(=O)N1CCC[C@H]1C(=O)N[C@@H](Cc1ccc(Cl)cc1)C(=O)O)C(=O)O [compound 477] ({Tridecanoyl-γGlu-AEEA-AEEA}-QRPELSHKGP[Nle]P[Phe(4-Cl)]-OH)			64	< 1	2	0.423	
CCCCCCCCCCCCC(=O)N[C@@H](CCC(=O)NCCOCCOCC(=O)NCCOCCOCC(=O)N[C@H](CCC(N)=O)C(=O)N[C@@H](CCCNC(=N)N)C(=O)N1CCC[C@H]1C(=O)N[C@@H](CCC(=O)O)C(=O)N[C@@H](CC1CCCCC1)C(=O)N[C@@H](CO)C(=O)N[C@@H](Cc1c[nH]cn1)C(=O)N[C@@H](CCCCN)C(=O)NCC(=O)N1[C@H](C(=O)N[C@@H](CCCC)C(=O)NC(C)(C)C(=O)N[C@@H](Cc2ccc(Cl)cc2)C(=O)O)C[C@@H]2CCCC[C@@H]21)C(=O)O [compound 526] ({Tridecanoyl-γGlu-AEEA-AEEA}-[dQ]RPE[Cha]SHKG[Oic][Nle][Aib][Phe(4-Cl)]-OH)			> 90	5	< 1	2.02	
CCCCCCCCCCCCC(=O)N[C@@H](CCC(=O)NCCOCCOCC(=O)NCCOCCOCC(=O)NC(CC(=O)N[C@@H](CCCNC(=N)N)C(=O)N1CCCC1(C)C(=O)N[C@@H](CCCCNC(=N)N)C(=O)NC(C)(CC(C)C)C(=O)N[C@@H](CO)C(=O)N[C@@H](Cc1c[nH]cn1)C(=O)N[C@@H](CCCCN)C(=O)NCC(=O)N1[C@H](C(=O)N[C@@H](CCCC)C(=O)N2CCCC2(C)C(=O)N[C@@H](Cc2ccc(Cl)cc2)C(=O)O)C[C@@H]2CCCC[C@@H]21)C(C)C)C(=O)O (stereo partly drawn) [compound 552] ({Tridecanoyl-γGlu-AEEA-AEEA}-[ξβ3hV]R[ξαMeP][hArg][ξαMeL]SHKG[Oic][Nle][ξαMeP][Phe(4-Cl)]-OH)	1.95		> 90	40	18		
CCCCCCCCCCCCCCCC(=O)N[C@@H](CCC(=O)NCCOCCOCC(=O)NCCOCCOCC(=O)N[C@H](CCC(N)=O)C(=O)N[C@@H](CCCCNC(=N)N)C(=O)N1CCC[C@H]1C(=O)N[C@H](CCCNC(=N)N)C(=O)N[C@@H](CC1CCCCC1)C(=O)N[C@@H](CO)C(=O)N[C@@H](Cc1c[nH]cn1)C(=O)N[C@@H](CCCCN)C(=O)NCC(=O)N1[C@H](C(=O)N[C@@H](CCCC)C(=O)N2CCC[C@H]2C(=O)N[C@@H](CC(=O)O)Cc2ccccc2)C[C@@H]2CCCC[C@@H]21)C(=O)O [compound 614] ({Palmitoyl-γGlu-AEEA-AEEA}-[dQ][hArg]P[dR][Cha]SHKG[Oic][Nle]P[d(β3hF)]-OH)	1.25	10.3	90	11	9		
